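Values below derive from 48-hour exposures of cells grown in 96-well plates, with endpoints linearly interpolated between the two concentrations bracketing the appropriate inhibition level. TGI is the concentration that stops growth completely.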
What follows are molecules tested on HOP-92 NSCLC (assay: NCI-60 cell line screen, 48 h).

Row | SMILES | TGI
1 | COC(=O)C(Cc1cn(C(C)=O)c2ccccc12)P(=O)(OC)OC (stereo not drawn) | > 100 µM
2 | O=C(O)c1ccc(P(=O)(O)c2ccc(C(=O)O)cc2Br)c(Br)c1 | > 100 µM
3 | Cn1ccnc1CC(C)(O)c1ccccc1 (stereo not drawn) | > 100 µM

The molecules below were run on HS 578T breast (assay: NCI-60 cell line screen, 48 h).

Row | SMILES | TGI
4 | O=C1c2cccc3cc([N+](=O)[O-])cc(c23)C(=O)N1CCCN1CCN(CCCNc2ccc3ncn4c5ccccc5c(=O)c2c34)CC1 | 8.75 µM
5 | O=C(O)c1ccc(P(=O)(O)c2ccc(C(=O)O)cc2Br)c(Br)c1 | > 100 µM
6 | Cn1ccnc1CC(C)(O)c1ccccc1 (stereo not drawn) | > 100 µM

These molecules were tested on HT29 colon (assay: NCI-60 cell line screen, 48 h).

Row | SMILES | TGI
7 | O=C1c2cccc3cc([N+](=O)[O-])cc(c23)C(=O)N1CCCN1CCN(CCCNc2ccc3ncn4c5ccccc5c(=O)c2c34)CC1 | < 0.005 µM
8 | COC(=O)C(Cc1cn(C(C)=O)c2ccccc12)P(=O)(OC)OC (stereo not drawn) | > 100 µM
9 | Cn1ccnc1CC(C)(O)c1ccccc1 (stereo not drawn) | > 100 µM

The molecules below were run on IGROV1 ovarian (assay: NCI-60 cell line screen, 48 h).

Row | SMILES | TGI
10 | COC(=O)C(Cc1cn(C(C)=O)c2ccccc12)P(=O)(OC)OC (stereo not drawn) | > 100 µM
11 | O=C(O)c1ccc(P(=O)(O)c2ccc(C(=O)O)cc2Br)c(Br)c1 | > 100 µM
12 | Cn1ccnc1CC(C)(O)c1ccccc1 (stereo not drawn) | > 100 µM

Each molecule was assayed on K-562 leukemia (assay: NCI-60 cell line screen, 48 h).

Row | SMILES | TGI
13 | COC(=O)C(Cc1cn(C(C)=O)c2ccccc12)P(=O)(OC)OC (stereo not drawn) | > 100 µM
14 | O=C(O)c1ccc(P(=O)(O)c2ccc(C(=O)O)cc2Br)c(Br)c1 | > 100 µM
15 | Cn1ccnc1CC(C)(O)c1ccccc1 (stereo not drawn) | > 100 µM

What follows are molecules tested on KM12 colon (assay: NCI-60 cell line screen, 48 h).

Row | SMILES | TGI
16 | COC(=O)C(Cc1cn(C(C)=O)c2ccccc12)P(=O)(OC)OC (stereo not drawn) | > 100 µM
17 | O=C(O)c1ccc(P(=O)(O)c2ccc(C(=O)O)cc2Br)c(Br)c1 | > 100 µM
18 | Cn1ccnc1CC(C)(O)c1ccccc1 (stereo not drawn) | > 100 µM

The molecules below were run on LOX IMVI melanoma (assay: NCI-60 cell line screen, 48 h).

Row | SMILES | TGI
19 | O=C(O)c1ccc(P(=O)(O)c2ccc(C(=O)O)cc2Br)c(Br)c1 | > 100 µM
20 | Cn1ccnc1CC(C)(O)c1ccccc1 (stereo not drawn) | > 100 µM

These molecules were tested on M14 melanoma (assay: NCI-60 cell line screen, 48 h).

Row | SMILES | TGI
21 | O=C1c2cccc3cc([N+](=O)[O-])cc(c23)C(=O)N1CCCN1CCN(CCCNc2ccc3ncn4c5ccccc5c(=O)c2c34)CC1 | 0.0785 µM
22 | COC(=O)C(Cc1cn(C(C)=O)c2ccccc12)P(=O)(OC)OC (stereo not drawn) | > 100 µM
23 | O=C(O)c1ccc(P(=O)(O)c2ccc(C(=O)O)cc2Br)c(Br)c1 | > 100 µM
24 | Cn1ccnc1CC(C)(O)c1ccccc1 (stereo not drawn) | > 100 µM

These molecules were tested on MALME-3M melanoma (assay: NCI-60 cell line screen, 48 h).

Row | SMILES | TGI
25 | Cn1ccnc1CC(C)(O)c1ccccc1 (stereo not drawn) | > 100 µM

The molecules below were run on MCF7 breast (assay: NCI-60 cell line screen, 48 h).

Row | SMILES | TGI
26 | O=C1c2cccc3cc([N+](=O)[O-])cc(c23)C(=O)N1CCCN1CCN(CCCNc2ccc3ncn4c5ccccc5c(=O)c2c34)CC1 | < 0.005 µM
27 | COC(=O)C(Cc1cn(C(C)=O)c2ccccc12)P(=O)(OC)OC (stereo not drawn) | > 100 µM
28 | O=C(O)c1ccc(P(=O)(O)c2ccc(C(=O)O)cc2Br)c(Br)c1 | > 100 µM
29 | Cn1ccnc1CC(C)(O)c1ccccc1 (stereo not drawn) | > 100 µM

What follows are molecules tested on MDA-MB-231 breast (assay: NCI-60 cell line screen, 48 h).

Row | SMILES | TGI
30 | O=C1c2cccc3cc([N+](=O)[O-])cc(c23)C(=O)N1CCCN1CCN(CCCNc2ccc3ncn4c5ccccc5c(=O)c2c34)CC1 | 0.62 µM
31 | COC(=O)C(Cc1cn(C(C)=O)c2ccccc12)P(=O)(OC)OC (stereo not drawn) | > 100 µM
32 | O=C(O)c1ccc(P(=O)(O)c2ccc(C(=O)O)cc2Br)c(Br)c1 | > 100 µM
33 | Cn1ccnc1CC(C)(O)c1ccccc1 (stereo not drawn) | > 100 µM

These molecules were tested on MDA-MB-435 (assay: NCI-60 cell line screen, 48 h).

Row | SMILES | TGI
34 | O=C1c2cccc3cc([N+](=O)[O-])cc(c23)C(=O)N1CCCN1CCN(CCCNc2ccc3ncn4c5ccccc5c(=O)c2c34)CC1 | > 50 µM
35 | COC(=O)C(Cc1cn(C(C)=O)c2ccccc12)P(=O)(OC)OC (stereo not drawn) | > 100 µM
36 | O=C(O)c1ccc(P(=O)(O)c2ccc(C(=O)O)cc2Br)c(Br)c1 | > 100 µM
37 | Cn1ccnc1CC(C)(O)c1ccccc1 (stereo not drawn) | > 100 µM

The molecules below were run on MDA-N (assay: NCI-60 cell line screen, 48 h).

Row | SMILES | TGI
38 | O=C1c2cccc3cc([N+](=O)[O-])cc(c23)C(=O)N1CCCN1CCN(CCCNc2ccc3ncn4c5ccccc5c(=O)c2c34)CC1 | 0.579 µM
39 | COC(=O)C(Cc1cn(C(C)=O)c2ccccc12)P(=O)(OC)OC (stereo not drawn) | > 100 µM
40 | O=C(O)c1ccc(P(=O)(O)c2ccc(C(=O)O)cc2Br)c(Br)c1 | > 100 µM
41 | Cn1ccnc1CC(C)(O)c1ccccc1 (stereo not drawn) | > 100 µM

What follows are molecules tested on MOLT-4 leukemia (assay: NCI-60 cell line screen, 48 h).

Row | SMILES | TGI
42 | O=C1c2cccc3cc([N+](=O)[O-])cc(c23)C(=O)N1CCCN1CCN(CCCNc2ccc3ncn4c5ccccc5c(=O)c2c34)CC1 | > 50 µM
43 | O=C(O)c1ccc(P(=O)(O)c2ccc(C(=O)O)cc2Br)c(Br)c1 | > 100 µM

What follows are molecules tested on NCI-H226 lung (assay: NCI-60 cell line screen, 48 h).

Row | SMILES | TGI
44 | O=C1c2cccc3cc([N+](=O)[O-])cc(c23)C(=O)N1CCCN1CCN(CCCNc2ccc3ncn4c5ccccc5c(=O)c2c34)CC1 | < 0.005 µM
45 | COC(=O)C(Cc1cn(C(C)=O)c2ccccc12)P(=O)(OC)OC (stereo not drawn) | > 100 µM
46 | O=C(O)c1ccc(P(=O)(O)c2ccc(C(=O)O)cc2Br)c(Br)c1 | > 100 µM
47 | Cn1ccnc1CC(C)(O)c1ccccc1 (stereo not drawn) | > 100 µM

The molecules below were run on NCI-H23 lung (assay: NCI-60 cell line screen, 48 h).

Row | SMILES | TGI
48 | COC(=O)C(Cc1cn(C(C)=O)c2ccccc12)P(=O)(OC)OC (stereo not drawn) | > 100 µM

Reference: PubChem BioAssay (NCI)
